The target of the test is T1, G1 APOL1 (Homo sapiens, UniProt O14791, I384M/S342G).
T1 construct: expressed in transfected cells
T1 sequence (O14791 28-398 S342G/I384M): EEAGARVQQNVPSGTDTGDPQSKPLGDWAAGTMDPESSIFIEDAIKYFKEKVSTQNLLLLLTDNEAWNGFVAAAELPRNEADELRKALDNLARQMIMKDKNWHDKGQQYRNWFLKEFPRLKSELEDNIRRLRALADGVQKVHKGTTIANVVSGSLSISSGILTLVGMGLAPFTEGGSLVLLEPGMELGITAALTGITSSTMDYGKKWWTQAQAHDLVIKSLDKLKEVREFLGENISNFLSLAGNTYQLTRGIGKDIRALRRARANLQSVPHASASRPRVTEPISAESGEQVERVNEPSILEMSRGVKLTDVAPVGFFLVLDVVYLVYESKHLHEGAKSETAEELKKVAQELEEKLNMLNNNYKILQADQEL
Kind of test: Acute APOL1 Thallium Assay with inducible stable clones of HEK 293 cells. The test is classed as cell-based. Particulars: HEK 293 T-Rex cells expressing G1 APOL1; read-out: Thallium Assay (IC50). Summed up: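 Tetracycline-inducible HEK293 T-Rex clone G1 DC3.25 expressing G1 APOL1, plated at 26000 cells/well in Opti-MEM with tetracycline induction. APOL1 pore activity read on FLIPR as fluorescence increase from Tl+ influx into cells loaded with a Tl+-sensitive AM-ester dye.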

For orientation: IC50 means the concentration that gives 50% inhibition. Take `O=C([C@H]1C[C@H](c2c(-c3ccc(F)cc3)[nH]c3c(F)cc(F)cc32)C1)N1CCC[C@@H](O)C1` [Compound 149]: the IC50 fell in the range of 250 to 1000 nM.
As for `CN(CC(O)CO)C(=O)[C@H]1C[C@H](c2c(-c3ccc(F)cc3)[nH]c3c(F)cc(F)cc32)C1` (stereo partly shown) [Compound 158], the figure is over 1000 nM; as for `CN(C)C[C@@H]1CCN(C(=O)[C@H]2C[C@H](c3c(-c4ccc(F)cc4)[nH]c4c(F)cc(F)cc43)C2)C[C@H]1O` [Compound 110], over 1000 nM; as for `CCC(O)(CCCO)CNC(=O)[C@H]1C[C@H](c2c(-c3ccc(F)cc3)[nH]c3c(F)cc(F)cc32)C1` (stereo partly shown) [Compound 119], over 1000 nM.
Regarding `O=C(NC1(CO)CCC1)[C@H]1C[C@H](c2c(-c3ccc(F)cc3)[nH]c3c(F)cc(F)cc32)C1` [Compound 6], the IC50 is under 250 nM.
Then `CN1CCC(NC(=O)[C@H]2C[C@H](c3c(-c4ccc(F)cc4)[nH]c4c(F)cc(F)cc43)C2)C1=O` (stereo partly shown) [Compound 7], with 250 to 1000 nM.
In the case of `O=C([C@H]1C[C@H](c2c(-c3ccc(F)cc3)[nH]c3c(F)cc(F)cc32)C1)N1CCN(CCO)CC1` [Compound 126], the IC50 is over 1000 nM.
Then `O=C([C@H]1C[C@H](c2c(-c3ccc(F)cc3)[nH]c3c(F)cc(F)cc32)C1)N1CCCC(CCO)C1` (stereo partly shown) [Compound 128], with over 1000 nM; and `O=C([C@H]1C[C@H](c2c(-c3ccc(F)cc3)[nH]c3c(F)cc(F)cc32)C1)N1C2CCC(C2)C1CO` (stereo partly shown) [Compound 97], with over 1000 nM.
Then `O=C([C@H]1C[C@H](c2c(-c3ccc(F)cc3)[nH]c3c(F)cc(F)cc32)C1)N1CCOCC1CCO` (stereo partly shown) [Compound 113], with over 1000 nM; and `O=C([C@H]1C[C@H](c2c(-c3ccc(F)cc3)[nH]c3c(F)cc(F)cc32)C1)N1CC(O)C(CO)C1` (stereo partly shown) [Compound 138], with over 1000 nM; and `NC(=O)[C@H]1CCN(C(=O)[C@H]2C[C@H](c3c(-c4ccc(F)cc4)[nH]c4c(F)cc(F)cc43)C2)C1` [Compound 154], with over 1000 nM.
Then `CC(C)N(CCO)C(=O)[C@H]1C[C@H](c2c(-c3ccc(F)cc3)[nH]c3c(F)cc(F)cc32)C1` [Compound 123], with over 1000 nM; and `O=C1C[C@@H](NC(=O)[C@H]2C[C@H](c3c(-c4ccc(F)cc4)[nH]c4c(F)cc(F)cc43)C2)C(=O)N1` [Compound 166], with under 250 nM.
In the case of `O=C(NCCCO)[C@H]1C[C@H](c2c(-c3ccc(F)cc3)[nH]c3c(F)cc(F)cc32)C1` [Compound 104], the IC50 was 250 to 1000 nM.
For the compound `CC1(C)CN(C(=O)[C@H]2C[C@H](c3c(-c4ccc(F)cc4)[nH]c4c(F)cc(F)cc43)C2)CC1O` (stereo partly shown) [Compound 102], the IC50 was over 1000 nM.
Take `O=C([C@H]1C[C@H](c2c(-c3ccc(F)cc3)[nH]c3c(F)cc(F)cc32)C1)N1CCC2(COC2)C1` [Compound 103]: the IC50 was over 1000 nM.
Turning to `O=C([C@H]1C[C@H](c2c(-c3ccc(F)cc3)[nH]c3c(F)cc(F)cc32)C1)N1CCCC[C@@H]1CCO` [Compound 156], the IC50 was over 1000 nM.
Regarding `CC1(C)CN(C(=O)[C@H]2C[C@H](c3c(-c4ccc(F)cc4)[nH]c4c(F)cc(F)cc43)C2)CCN1C(=O)[C@H]1C[C@@](C)(O)C1` [Compound 130], the IC50 was over 1000 nM.
Consider `O=C(NCc1cocn1)[C@H]1C[C@H](c2c(-c3ccc(F)cc3)[nH]c3c(F)cc(F)cc32)C1` [Compound 168], for which the half-maximal inhibitory concentration (IC50) fell in the range of 250 to 1000 nM.
As for `CNC(=O)C(C)NC(=O)[C@H]1C[C@H](c2c(-c3ccc(F)cc3)[nH]c3c(F)cc(F)cc32)C1` (mixture of isomers) [Compound 9], the figure is 250 to 1000 nM; as for `CC(O)CNC(=O)[C@H]1C[C@H](c2c(-c3ccc(F)cc3)[nH]c3c(F)cc(F)cc32)C1` (stereo partly shown) [Compound 167], 250 to 1000 nM.
As to `O=C([C@H]1C[C@H](c2c(-c3ccc(F)cc3)[nH]c3c(F)cc(F)cc32)C1)N1CCC[C@@H](CO)C1` [Compound 109], the IC50 was over 1000 nM.
As for `CC1(C)CN(C(=O)[C@H]2C[C@H](c3c(-c4ccc(F)cc4)[nH]c4c(F)cc(F)cc43)C2)CCC1O` (stereo partly shown) [Compound 114], the figure is over 1000 nM.
As for `O=C1CCC(NC(=O)[C@H]2C[C@H](c3c(-c4ccc(F)cc4)[nH]c4c(F)cc(F)cc43)C2)C1` (stereo partly shown) [Compound 159], the figure is over 1000 nM; as for `O=C1C[C@H](NC(=O)[C@H]2C[C@H](c3c(-c4ccc(F)cc4)[nH]c4c(F)cc(F)cc43)C2)C(=O)N1` [Compound 165], under 250 nM.
As for `O=C(N[C@H](CO)C(F)(F)F)[C@H]1C[C@H](c2c(-c3ccc(F)cc3)[nH]c3c(F)cc(F)cc32)C1` [Compound 164], the figure is 250 to 1000 nM; as for `O=C([C@H]1C[C@H](c2c(-c3ccc(F)cc3)[nH]c3c(F)cc(F)cc32)C1)N1C[C@H]2C[C@@]2(CO)C1` [Compound 98], over 1000 nM.
Turning to `O=C1CC[C@@H](NC(=O)[C@H]2C[C@H](c3c(-c4ccc(F)cc4)[nH]c4c(F)cc(F)cc43)C2)C1` [Compound 157], the IC50 was over 1000 nM.
Regarding `O=C([C@H]1C[C@H](c2c(-c3ccc(F)cc3)[nH]c3c(F)cc(F)cc32)C1)N1CCC[C@H](O)C1` [Compound 105], the IC50 is over 1000 nM.
As to `O=C([C@H]1C[C@H](c2c(-c3ccc(F)cc3)[nH]c3c(F)cc(F)cc32)C1)N(CCOCCO)C1CCC1` [Compound 121], the IC50 is over 1000 nM.
In the case of `O=C([C@H]1C[C@H](c2c(-c3ccc(F)cc3)[nH]c3c(F)cc(F)cc32)C1)N1CCCC[C@H]1CO` [Compound 146], the IC50 was over 1000 nM.
As for `CC(C)[C@@H](CO)NC(=O)[C@H]1C[C@H](c2c(-c3ccc(F)cc3)[nH]c3c(F)cc(F)cc32)C1` [Compound 141], the figure is over 1000 nM; as for `O=C([C@H]1C[C@H](c2c(-c3ccc(F)cc3)[nH]c3c(F)cc(F)cc32)C1)N(CCO)c1cnccn1` [Compound 132], over 1000 nM.
As to `CCC1(O)CN(C(=O)[C@H]2C[C@H](c3c(-c4ccc(F)cc4)[nH]c4c(F)cc(F)cc43)C2)C1` [Compound 112], the IC50 is over 1000 nM.
As for `O=C([C@H]1C[C@H](c2c(-c3ccc(F)cc3)[nH]c3c(F)cc(F)cc32)C1)N1CCCC[C@@H]1CO` [Compound 107], the figure is over 1000 nM.
As for `O=C([C@H]1C[C@H](c2c(-c3ccc(F)cc3)[nH]c3c(F)cc(F)cc32)C1)N1CC(OCC2CCCO2)C1` (stereo partly shown) [Compound 136], the figure is over 1000 nM; as for `O=C(NC(CO)CO)[C@H]1C[C@H](c2c(-c3ccc(F)cc3)[nH]c3c(F)cc(F)cc32)C1` [Compound 8], under 250 nM.
Turning to `O=C(N[C@@H](CO)C(F)(F)F)[C@H]1C[C@H](c2c(-c3ccc(F)cc3)[nH]c3c(F)cc(F)cc32)C1` [Compound 163], the IC50 is 250 to 1000 nM.
As for `NC(=O)[C@H]1C[C@H](c2c(-c3ccc(F)cc3)[nH]c3c(F)cc(F)cc32)C1` [Compound 169], the figure is 250 to 1000 nM; as for `O=C(NCCOCCO)[C@H]1C[C@H](c2c(-c3ccc(F)cc3)[nH]c3c(F)cc(F)cc32)C1` [Compound 125], under 250 nM.
Take `CC(O)CN(CCO)C(=O)[C@H]1C[C@H](c2c(-c3ccc(F)cc3)[nH]c3c(F)cc(F)cc32)C1` (mixture of isomers) [Compound 129]: the IC50 fell in the range of 250 to 1000 nM.
As for `NC(=O)C1CCN(C(=O)[C@H]2C[C@H](c3c(-c4ccc(F)cc4)[nH]c4c(F)cc(F)cc43)C2)CC1` [Compound 133], the figure is over 1000 nM.
Then `NC(=O)[C@H](CO)NC(=O)[C@H]1C[C@H](c2c(-c3ccc(F)cc3)[nH]c3c(F)cc(F)cc32)C1` [Compound 144], with 250 to 1000 nM; and `O=C([C@H]1C[C@H](c2c(-c3ccc(F)cc3)[nH]c3c(F)cc(F)cc32)C1)N1CC[C@H](CO)C1` [Compound 140], with over 1000 nM.
On to `O=C([C@H]1C[C@H](c2c(-c3ccc(F)cc3)[nH]c3c(F)cc(F)cc32)C1)N1CCC(CO)(CO)CC1` [Compound 108], for which the IC50 was over 1000 nM.
Consider `O=C([C@H]1C[C@H](c2c(-c3ccc(F)cc3)[nH]c3c(F)cc(F)cc32)C1)N1C[C@@H]2[C@@H](CO)[C@@H]2C1` [Compound 99], for which the IC50 was over 1000 nM.
As for `O=C([C@H]1C[C@H](c2c(-c3ccc(F)cc3)[nH]c3c(F)cc(F)cc32)C1)N1CC2(CC(O)C2)C1` [Compound 137], the figure is over 1000 nM.
Then `CN(CC1(CO)CCOCC1)C(=O)[C@H]1C[C@H](c2c(-c3ccc(F)cc3)[nH]c3c(F)cc(F)cc32)C1` [Compound 120], with over 1000 nM.
Consider `CC(CO)N1CCN(C(=O)[C@H]2C[C@H](c3c(-c4ccc(F)cc4)[nH]c4c(F)cc(F)cc43)C2)CC1` (mixture of isomers) [Compound 122], for which the IC50 was over 1000 nM.
`O=C(NCc1cnco1)[C@H]1C[C@H](c2c(-c3ccc(F)cc3)[nH]c3c(F)cc(F)cc32)C1` [Compound 170]: the IC50 was 250 to 1000 nM.
Turning to `CO[C@H]1CCN(C(=O)[C@H]2C[C@H](c3c(-c4ccc(F)cc4)[nH]c4c(F)cc(F)cc43)C2)C1` [Compound 95], the IC50 is over 1000 nM.
Then `NC(=O)[C@@H]1CCN(C(=O)[C@H]2C[C@H](c3c(-c4ccc(F)cc4)[nH]c4c(F)cc(F)cc43)C2)C1` [Compound 135], with over 1000 nM; and `CCN(C(=O)[C@H]1C[C@H](c2c(-c3ccc(F)cc3)[nH]c3c(F)cc(F)cc32)C1)C(C)CO` (mixture of isomers) [Compound 111], with over 1000 nM.
`O=C([C@H]1C[C@H](c2c(-c3ccc(F)cc3)[nH]c3c(F)cc(F)cc32)C1)N1CC(n2cccn2)C1` [Compound 96]: the IC50 was over 1000 nM.

Source of the values: patent US12116343B2, “Inhibitors of APOL1 and methods of using same” (Vertex Pharmaceuticals Incorporated, priority 2020, dated 2024).
